Experimental findings from PubChem BioAssay (NCI) are described below.

Among the test systems are 786-0 renal; CAKI-1 renal; DU-145 prostate; HCC-2998 colon; HS 578T breast; KM12 colon; MCF7 breast; SF-295 CNS; SN12C renal; A498 renal.
Common to all, as to assay: DTP human tumour cell line panel, 48 h

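Briefly, cells in 96-well plates were exposed to five compound concentrations for 48 h, and endpoints were estimated by linear interpolation. GI50: concentration for 50% inhibition of growth. The concentration for full growth arrest is given as TGI.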

As for `C=C1C(=O)C2(C)OC2(C)C1C(=O)O` (stereo unspecified), the TGI with 786-0 renal, in the assay on CAKI-1 renal, in the assay on DU-145 prostate, with HCC-2998 colon, with HS 578T breast and in the assay with KM12 colon was above 100 µM throughout. Moreover, the total growth inhibition concentration (TGI) with MCF7 breast, in the assay on SF-295 CNS and in the assay on SN12C renal was above 100 µM each time.
Turning to `CC(=O)C(C=O)C(C)=O.CC(=O)CC(C)=O.CC(=O)CC(C)=O.[Ru]`, the GI50 in the assay with 786-0 renal was 37.3 µM; in the assay with CAKI-1 renal, 27.5 µM; in the assay with DU-145 prostate, 37.8 µM; with HS 578T breast, 0.0635 µM; in the assay on KM12 colon, 27.2 µM; with MCF7 breast, 35.4 µM. The GI50 was 16.2 µM in the assay with SF-295 CNS and 1.97 µM in the assay on SN12C renal. Also, the TGI in the assay on 786-0 renal is above 100 µM; in the assay on CAKI-1 renal, 72.4 µM; with DU-145 prostate, above 100 µM; with HS 578T breast, 4.2 µM; in the assay with KM12 colon, above 100 µM; in the assay on MCF7 breast, above 100 µM. Besides, the TGI with SF-295 CNS amounted to 68 µM; in the assay on SN12C renal it was 9.18 µM.
`Cc1[nH]n(-c2cccc(Cl)c2)c(=O)c1/C=C1\C=c2ccccc2=CC1=O`: the GI50 in the assay on 786-0 renal is 21.5 µM; in the assay on A498 renal, above 100 µM; in the assay on CAKI-1 renal, above 100 µM; in the assay on DU-145 prostate, 70 µM; with HS 578T breast, 32.6 µM; in the assay with KM12 colon, above 100 µM. Besides, the GI50 in the assay on SF-295 CNS is 23.2 µM; in the assay with SN12C renal, above 100 µM. Further, the TGI is 86.6 µM in the assay with 786-0 renal; above 100 µM in the assay on A498 renal; above 100 µM with CAKI-1 renal; above 100 µM with DU-145 prostate; above 100 µM in the assay on HS 578T breast; above 100 µM in the assay with KM12 colon. Further, the TGI in the assay with SF-295 CNS and in the assay on SN12C renal was above 100 µM in each case.
As for `Fc1ccc(-c2nn3c(COc4ccc(Cl)cc4Cl)nnc3s2)cc1Oc1ccccc1`, the GI50 in the assay on 786-0 renal was 14 µM; in the assay with A498 renal, 20.2 µM; in the assay with CAKI-1 renal, 12.8 µM; in the assay on DU-145 prostate, 19.2 µM; with HS 578T breast, 16.4 µM; in the assay with KM12 colon, 28.9 µM. Moreover, the GI50 was 67.1 µM with MCF7 breast, 6.2 µM in the assay on SF-295 CNS and 12.9 µM in the assay on SN12C renal. Moreover, the TGI was found to be 26.9 µM with 786-0 renal; 40.6 µM with A498 renal; 25.4 µM with CAKI-1 renal; 42.5 µM with DU-145 prostate; 47.5 µM in the assay with HS 578T breast; 91.2 µM in the assay on KM12 colon. For the same compound, the figures for the TGI with MCF7 breast, with SF-295 CNS and in the assay with SN12C renal were above 100 µM, 20 µM and 29.6 µM, respectively.
On to `CC12CC(=O)C3C(CCC4=CC(=O)CCC43C)C1CC=C2CC(=O)O` (stereo unspecified), for which the TGI in the assay on 786-0 renal, in the assay with A498 renal, with CAKI-1 renal, in the assay on DU-145 prostate, in the assay with HS 578T breast and in the assay on KM12 colon was above 100 µM throughout. Further, the TGI in the assay on MCF7 breast, in the assay on SF-295 CNS and with SN12C renal was above 100 µM throughout.
As for `COc1cc(-c2nn(-c3cccc(NC(=O)CCN4CCN(C)CC4)c3)cc2-c2ccncc2)ccc1Cl`, the GI50 is 1.54 µM in the assay with 786-0 renal; 0.412 µM with A498 renal; 0.997 µM in the assay on DU-145 prostate; 1.86 µM in the assay with HCC-2998 colon; 1.41 µM in the assay on HS 578T breast; 1.36 µM with KM12 colon. Also, the GI50 with MCF7 breast is 0.35 µM; in the assay with SF-295 CNS, 0.968 µM; with SN12C renal, 2.05 µM. Moreover, the TGI in the assay on 786-0 renal is 3.43 µM; with A498 renal it was 3.23 µM; in the assay on DU-145 prostate, 6.24 µM; with HCC-2998 colon, 3.79 µM; in the assay with HS 578T breast, 6.39 µM; in the assay with KM12 colon, 4.59 µM. For the same compound, the TGI turned out to be 1.92 µM in the assay on MCF7 breast, 2.75 µM in the assay on SF-295 CNS and 8.45 µM in the assay on SN12C renal.
For `O=c1[nH]c(SCc2ccccc2[N+](=O)[O-])nc2nc[nH]c12`, the TGI in the assay on 786-0 renal, in the assay with A498 renal, with CAKI-1 renal, with DU-145 prostate, with HS 578T breast and in the assay with KM12 colon was above 100 µM each time. Also, the TGI in the assay on MCF7 breast, in the assay on SF-295 CNS and in the assay with SN12C renal was above 100 µM each time.
Regarding `CNCCN(C)Cc1cn[nH]c1-c1ccc(OC2CC(OCCC3CCOCC3)C2)cc1` (stereo unspecified), the GI50 in the assay on 786-0 renal is above 100 µM; with A498 renal it was above 57.1 µM; in the assay on DU-145 prostate it was above 100 µM; in the assay on HCC-2998 colon, above 100 µM; in the assay on HS 578T breast it was 63.1 µM; in the assay with KM12 colon, above 83.9 µM. In addition, the GI50 in the assay on MCF7 breast is above 81.2 µM; in the assay on SF-295 CNS, 49.9 µM; with SN12C renal, above 100 µM. In addition, the TGI in the assay with 786-0 renal, in the assay with A498 renal, with DU-145 prostate, with HCC-2998 colon, in the assay on HS 578T breast and in the assay with KM12 colon was above 100 µM in each case. Further, the TGI with MCF7 breast, with SF-295 CNS and in the assay with SN12C renal was above 100 µM in each case.
As to `N=C1/C(=C2\Nc3ccccc3S2)CC(=O)N1c1ccc(SC(F)F)cc1`, the GI50 with 786-0 renal is 3.23 µM; with CAKI-1 renal, 8.7 µM; with DU-145 prostate, 77.1 µM; with HS 578T breast, 2.17 µM; in the assay on KM12 colon, 8.13 µM; in the assay on MCF7 breast, 9.35 µM. Moreover, the GI50 in the assay with SF-295 CNS is 1.1 µM; with SN12C renal, above 100 µM. Moreover, the TGI is above 100 µM in the assay on 786-0 renal; above 100 µM in the assay on CAKI-1 renal; above 100 µM in the assay with DU-145 prostate; 29.2 µM in the assay on HS 578T breast; above 100 µM with KM12 colon; above 100 µM with MCF7 breast. In addition, the TGI is 9.32 µM in the assay on SF-295 CNS and above 100 µM with SN12C renal.
As for `Fc1ccc(C2C3CCOc4c(ccc5ccccc45)C3=NN2c2ccccc2)cc1` (stereo unspecified), the GI50 in the assay on 786-0 renal is above 100 µM; with A498 renal, above 100 µM; in the assay on CAKI-1 renal it was 64.2 µM; in the assay on DU-145 prostate, above 100 µM; in the assay with HS 578T breast, above 88.6 µM; in the assay on KM12 colon, above 100 µM. Also, the GI50 in the assay on MCF7 breast is above 85.4 µM; in the assay with SF-295 CNS, 20.7 µM; in the assay on SN12C renal, above 100 µM. For the same compound, the TGI with 786-0 renal, in the assay with A498 renal, in the assay with CAKI-1 renal, with DU-145 prostate, in the assay with HS 578T breast and with KM12 colon was above 100 µM throughout. The TGI with MCF7 breast, in the assay with SF-295 CNS and with SN12C renal was above 100 µM in each case.
With `Cc1ccc(S(=O)(=O)CC2(Br)CCc3ccccc3C2=O)cc1` (stereo unspecified), the TGI in the assay with 786-0 renal was above 100 µM; in the assay on A498 renal, 95 µM; with CAKI-1 renal, 53.4 µM; with DU-145 prostate, above 100 µM; in the assay with HS 578T breast, above 100 µM; with KM12 colon, above 100 µM. Moreover, the figures for the TGI in the assay with MCF7 breast, in the assay on SF-295 CNS and with SN12C renal were 85.9 µM, above 100 µM and above 100 µM, respectively.
For the compound `O=C1N=C(Nc2nc(-c3csc(NC4=NC(=O)/C(=C\c5ccc(Cl)cc5)S4)n3)cs2)S/C1=C/c1ccc(Cl)cc1`, the GI50 was 1.6 µM in the assay with 786-0 renal; 20 µM in the assay with CAKI-1 renal; 17 µM in the assay on DU-145 prostate; 13.3 µM in the assay on HCC-2998 colon; above 50 µM with HS 578T breast; 10.1 µM with KM12 colon. Also, the GI50 in the assay with MCF7 breast is 3.97 µM; with SF-295 CNS it was 17.4 µM; in the assay on SN12C renal, 7.85 µM. The TGI with 786-0 renal was 12 µM; with CAKI-1 renal, above 50 µM; in the assay with DU-145 prostate it was above 50 µM; with HCC-2998 colon, 45.2 µM; in the assay with HS 578T breast, above 50 µM; in the assay with KM12 colon, 35.6 µM. Further, the TGI is above 50 µM in the assay with MCF7 breast, above 50 µM in the assay on SF-295 CNS and 33.7 µM with SN12C renal.
In the case of `CCCCCCSc1nc(COC(=O)NC)c(COC(=O)NC)n1C`, the TGI in the assay with 786-0 renal, in the assay with A498 renal, with CAKI-1 renal, in the assay with DU-145 prostate, with HS 578T breast and in the assay on KM12 colon was above 100 µM in each case. For the same compound, the TGI in the assay with MCF7 breast, with SF-295 CNS and in the assay with SN12C renal was above 100 µM each time.
For `CC1COCCN1CC#CCOC(=O)c1cc2ccccc2oc1=O` (stereo unspecified), the GI50 in the assay with 786-0 renal is above 100 µM; in the assay on CAKI-1 renal it was above 100 µM; in the assay on DU-145 prostate it was above 100 µM; with HCC-2998 colon it was above 100 µM; in the assay on HS 578T breast, 62.4 µM; in the assay with KM12 colon, above 100 µM. Besides, the GI50 in the assay with MCF7 breast, with SF-295 CNS and with SN12C renal was above 100 µM in each case. Further, the TGI with 786-0 renal, in the assay on CAKI-1 renal, in the assay on DU-145 prostate, with HCC-2998 colon, in the assay on HS 578T breast and in the assay on KM12 colon was above 100 µM in each case. Moreover, the TGI in the assay with MCF7 breast, with SF-295 CNS and in the assay on SN12C renal was above 100 µM in each case.
